In one test the test system is H1299 cells. Put plainly: Cell proliferation PAD assay, H1299. Format: cell-based. The note with it: Homo sapiens, 48 hours. The essentials:
(§1)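 Cells plated at 2,000/well; compounds added 24 h later as 6.3-fold dilutions from a 10 mM master stock, diluted 500-fold into wells, in duplicate. After 48 h at 37 °C, 5% CO2, cells were formamide-fixed, DAPI-stained and imaged to count live, apoptotic and dead cells.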

The subject of another test is A549 cells. The experiment in a line: Cell proliferation PAD assay, A549. It counts as cell-based. The note with it: Homo sapiens, 48 hours. In short, it runs like this: as §1
The next test concerns the target T1, TRAF6/Uev1A/Ubc13 (Homo sapiens, UniProt Q9Y4K3).
T1 sequence (Q9Y4K3 1-522): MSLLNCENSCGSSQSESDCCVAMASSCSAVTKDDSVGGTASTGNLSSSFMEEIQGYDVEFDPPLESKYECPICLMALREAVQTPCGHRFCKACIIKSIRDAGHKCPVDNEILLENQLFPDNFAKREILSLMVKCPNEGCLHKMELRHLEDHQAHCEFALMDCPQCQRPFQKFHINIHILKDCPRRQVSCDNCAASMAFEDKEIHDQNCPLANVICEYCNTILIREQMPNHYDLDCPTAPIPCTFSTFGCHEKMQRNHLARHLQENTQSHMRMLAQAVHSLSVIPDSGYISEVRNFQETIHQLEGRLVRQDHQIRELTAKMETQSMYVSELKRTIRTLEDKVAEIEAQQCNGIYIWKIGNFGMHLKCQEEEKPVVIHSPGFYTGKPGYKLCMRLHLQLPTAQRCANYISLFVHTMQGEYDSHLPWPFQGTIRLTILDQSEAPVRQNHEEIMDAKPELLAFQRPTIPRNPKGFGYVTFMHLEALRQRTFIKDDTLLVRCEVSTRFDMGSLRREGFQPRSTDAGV
The experiment in a line: TRAF6/Uev1A/Ubc13 plate-based ubiquitin ligase assay. Format: biochemical. The essentials: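 Ligase activity was read as luminescence from anti-Flag/HRP detection of Flag-ubiquitin bound to casein-blocked Ni-plates alongside His-ubiquitin after a 1 h room-temperature reaction. Buffer: 62.5 mM Tris pH 7.5, 6.25 mM MgCl2, 1.0 mM DTT, 2 μM ATP; E1, Uev1a/Ubc13 and TRAF6 added last to start. IC50s derived across compound concentrations.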

The mark [1] stands for this setting: NCI-H1299, 3pt, read-out: H1299 3pt.
Where [2] appears, read: NCI-H1299, 6pt, read-out: H1299 6pt.

pIC50: −log10 of the molar value. Where two headings read alike, the source gives them in different places. Some results are limits rather than exact numbers.

For `O=[N+]([O-])c1ccc(N2CCN(c3cccc(C(F)(F)F)c3)CC2)c2nonc12` [compound 106, 4-nitro-7-{4-[3-(trifluoromethyl)phenyl]piperazin-1-yl}-2,1,3-benzoxadiazole], the pIC50 in the test on H1299 cells (setting [1]) is not above 4.70; in the test on A549 cells (3pt, read-out: A549 3pt), not above 4.70; against TRAF6/Uev1A/Ubc13, not above 4.70.

Regarding `O=S(=O)(Nc1ccc2[nH]ncc2c1)c1ccc(Sc2cccc3cccnc23)c2nonc12` [compound 224, N-1H-indazol-5-yl-7-(quinolin-8-ylthio)-2,1,3-benzoxadiazole-4-sulfonamide], the pIC50 is not above 4.70 in the test on H1299 cells (setting [1]); 4.70 to 6.00 in the test with A549 cells (3pt, read-out: A549 3pt); not above 4.70 against TRAF6/Uev1A/Ubc13.

As to `CC1CN(c2ccc3nonc3c2S(=O)(=O)N2CC(C)OC(C)C2)CC(C)O1` (stereo not drawn) [compound 205, 5-(2,6-dimethylmorpholin-4-yl)-4-[(2,6-dimethylmorpholin-4-yl)sulfonyl]-2,1,3-benzoxadiazole], the pIC50 was 4.70 to 6.00 with H1299 cells (setting [1]); not above 4.70 with A549 cells (3pt, read-out: A549 3pt); not above 4.70 at TRAF6/Uev1A/Ubc13.

Regarding `O=[N+]([O-])c1ccc(N2CCN(c3ccc(Cl)c(C(F)(F)F)c3)CC2)c2nonc12` [compound 105, {4-[4-chloro-3-(trifluoromethyl)phenyl]piperazin-1-yl}-7-nitro-2,1,3-benzoxadiazole], the pIC50 in the test with H1299 cells (setting [1]) was not above 4.70; in the test on A549 cells (3pt, read-out: A549 3pt), not above 4.70; against TRAF6/Uev1A/Ubc13 it was not above 4.70.

Consider `O=S(=O)(Nc1ccc(Oc2cc(C(F)(F)F)ccn2)cc1)c1cccc2nonc12` [compound 103, N-(4-{[4-(trifluoromethyl)pyridin-2-yl]oxy}phenyl)-2,1,3-benzoxadiazole-4-sulfonamide], for which the pIC50 was not above 4.70 with H1299 cells (setting [1]); not above 4.70 in the test with A549 cells (3pt, read-out: A549 3pt); not above 4.70 against TRAF6/Uev1A/Ubc13.

Regarding `O=S(=O)(c1ccc(Sc2ccncc2)c2nonc12)N1CCC(O)(c2ccc(Cl)cc2)CC1` [compound 246, 4-(4-chlorophenyl)-1-{[7-(pyridin-4-ylthio)-2,1,3-benzoxadiazol-4-yl]sulfonyl}piperidin-4-ol], the pIC50 in the test with H1299 cells (setting [2]) is 4.70 to 6.00; in the test with A549 cells (6pt, read-out: A549 6pt) it was not above 4.70; on TRAF6/Uev1A/Ubc13, 4.70 to 6.00.

As to `O=S(=O)(Nc1ccc(Oc2ncccn2)c(Cl)c1)c1cccc2nonc12` [compound 91, N-[3-chloro-4-(pyrimidin-2-yloxy)phenyl]-2,1,3-benzoxadiazole-4-sulfonamide], the pIC50 with H1299 cells (setting [1]) is not above 4.70; in the test on A549 cells (3pt, read-out: A549 3pt), not above 4.70; at TRAF6/Uev1A/Ubc13, not above 4.70.

Consider `O=C(OCc1ccccc1)N1CCN(c2ccc([N+](=O)[O-])c3nonc23)CC1` [compound 278, benzyl 4-(7-nitro-2,1,3-benzoxadiazol-4-yl)piperazine-1-carboxylate], for which the pIC50 with H1299 cells (setting [1]) was 4.70 to 6.00; in the test with A549 cells (3pt, read-out: A549 3pt), 4.70 to 6.00; against TRAF6/Uev1A/Ubc13, not above 4.70.

`CN1CCN(c2ccc([N+](=O)[O-])c3nonc23)CC1` [compound 110, 4-(4-methylpiperazin-1-yl)-7-nitro-2,1,3-benzoxadiazole]: the pIC50 is not above 4.70 in the test with H1299 cells (setting [1]); not above 4.70 in the test on A549 cells (3pt, read-out: A549 3pt); not above 4.70 against TRAF6/Uev1A/Ubc13.

As for `O=S(=O)(Oc1ccc(N2CCN(S(=O)(=O)c3cccc4nonc34)CC2)cc1)c1cccc2nonc12` [compound 139, 4-[4-(2,1,3-benzoxadiazol-4-ylsulfonyl)piperazin-1-yl]phenyl 2,1,3-benzoxadiazole-4-sulfonate], the pIC50 in the test with H1299 cells (setting [1]) was not above 4.70; with A549 cells (3pt, read-out: A549 3pt) it was not above 4.70; against TRAF6/Uev1A/Ubc13 it was 4.70 to 6.00.

For `Cc1cc(N2CCN(c3ccc([N+](=O)[O-])c4nonc34)CC2)c2ccccc2n1` [compound 152, 2-methyl-4-[4-(7-nitro-2,1,3-benzoxadiazol-4-yl)piperazin-1-yl]quinoline], the pIC50 in the test on H1299 cells (setting [1]) was 4.70 to 6.00; with A549 cells (3pt, read-out: A549 3pt), 4.70 to 6.00; at TRAF6/Uev1A/Ubc13, not above 4.70.

With `O=S(=O)(c1ccc(N2CCN(c3ncccc3C(F)(F)F)CC2)c2nonc12)N1CCN(c2ncccc2C(F)(F)F)CC1` [compound 166, 4-{4-[3-(trifluoromethyl)pyridin-2-yl]piperazin-1-yl}-7-({4-[3-(trifluoromethyl)pyridin-2-yl]piperazin-1-yl}sulfonyl)-2,1,3-benzoxadiazole], the pIC50 with H1299 cells (setting [2]) was not above 4.70; in the test with A549 cells (6pt, read-out: A549 6pt) it was 4.70 to 6.00; at TRAF6/Uev1A/Ubc13, 4.70 to 6.00.

For `O=S(=O)(Nc1cccc2nonc12)c1ccc(Oc2ccncc2)cc1` [compound 80, N-2,1,3-benzoxadiazol-4-yl-4-(pyridin-4-yloxy)benzenesulfonamide], the pIC50 in the test with H1299 cells (setting [1]) was not above 4.70; with A549 cells (3pt, read-out: A549 3pt) it was not above 4.70; at TRAF6/Uev1A/Ubc13 it was not above 4.70.

In the case of `CC1CN(c2ccc(S(=O)(=O)N3CC(C)OC(C)C3)c3nonc23)CC(C)O1` (stereo not drawn) [compound 211, 4-(2,6-dimethylmorpholin-4-yl)-7-[(2,6-dimethylmorpholin-4-yl)sulfonyl]-2,1,3-benzoxadiazole], the pIC50 in the test on H1299 cells (setting [1]) was not above 4.70; in the test with A549 cells (3pt, read-out: A549 3pt), not above 4.70; against TRAF6/Uev1A/Ubc13 it was not above 4.70.

In the case of `O=[N+]([O-])c1ccc(N2CCC(Oc3ccccc3C(F)(F)F)CC2)c2nonc12` [compound 233, 4-nitro-7-{4-[2-(trifluoromethyl)phenoxy]piperidin-1-yl}-2,1,3-benzoxadiazole], the pIC50 in the test on H1299 cells (setting [1]) is not above 4.70; with A549 cells (3pt, read-out: A549 3pt), not above 4.70; on TRAF6/Uev1A/Ubc13, more than 6.00.

In the case of `O=S(=O)(Nc1cccc2nonc12)c1ccc(Oc2ccccc2)cc1` [compound 93, N-2,1,3-benzoxadiazol-4-yl-4-phenoxybenzenesulfonamide], the pIC50 in the test on H1299 cells (setting [2]) was not above 4.70; in the test with A549 cells (6pt, read-out: A549 6pt), not above 4.70; against TRAF6/Uev1A/Ubc13 it was 4.70 to 6.00.

Take `O=[N+]([O-])c1ccc(N2CCC(c3ccncc3)CC2)c2nonc12` [compound 283, 4-nitro-7-(4-pyridin-4-ylpiperidin-1-yl)-2,1,3-benzoxadiazole]: the pIC50 in the test on H1299 cells (setting [1]) was not above 4.70; in the test on A549 cells (3pt, read-out: A549 3pt), not above 4.70; against TRAF6/Uev1A/Ubc13, not above 4.70.

As to `O=S(=O)(c1ccc(F)c2nonc12)N1CCC(Oc2ccccc2C(F)(F)F)CC1` [compound 232, 4-fluoro-7-({4-[2-(trifluoromethyl)phenoxy]piperidin-1-yl}sulfonyl)-2,1,3-benzoxadiazole], the pIC50 in the test with H1299 cells (setting [1]) was 4.70 to 6.00; with A549 cells (3pt, read-out: A549 3pt) it was 4.70 to 6.00; against TRAF6/Uev1A/Ubc13, 4.70 to 6.00.

Consider `O=S(=O)(c1ccc(Cl)c2nonc12)N1CCC(O)(c2ccc(Cl)cc2)CC1` [compound 168, 1-[(7-chloro-2,1,3-benzoxadiazol-4-yl)sulfonyl]-4-(4-chlorophenyl)piperidin-4-ol], for which the pIC50 in the test with H1299 cells (setting [1]) is 4.70 to 6.00; in the test with H1299 cells (setting [2]), not above 4.70; with A549 cells (3pt, read-out: A549 3pt), 4.70 to 6.00; in the test on A549 cells (6pt, read-out: A549 6pt), not above 4.70; on TRAF6/Uev1A/Ubc13, not above 4.70.

`O=[N+]([O-])c1ccc(N2CCN(c3ccccc3)CC2)c2nonc12` [compound 143, 4-nitro-7-(4-phenylpiperazin-1-yl)-2,1,3-benzoxadiazole]: the pIC50 with H1299 cells (setting [1]) is not above 4.70; in the test on A549 cells (3pt, read-out: A549 3pt) it was not above 4.70; on TRAF6/Uev1A/Ubc13, not above 4.70.

Regarding `O=[N+]([O-])c1ccc(N2CCN(c3ccncc3)CC2)c2nonc12` [compound 108, 4-nitro-7-(4-pyridin-4-ylpiperazin-1-yl)-2,1,3-benzoxadiazole], the pIC50 was not above 4.70 in the test on H1299 cells (setting [1]); 4.70 to 6.00 in the test with A549 cells (3pt, read-out: A549 3pt); not above 4.70 against TRAF6/Uev1A/Ubc13.

On to `N#Cc1cccnc1N1CCN(S(=O)(=O)c2ccc(Sc3cccc4cccnc34)c3nonc23)CC1` [compound 176, 2-(4-{[7-(quinolin-8-ylthio)-2,1,3-benzoxadiazol-4-yl]sulfonyl}piperazin-1-yl)nicotinonitrile], for which the pIC50 in the test with H1299 cells (setting [1]) is not above 4.70; with H1299 cells (setting [2]), not above 4.70; in the test with A549 cells (3pt, read-out: A549 3pt), not above 4.70; with A549 cells (6pt, read-out: A549 6pt), not above 4.70; on TRAF6/Uev1A/Ubc13, 4.70 to 6.00.

For `COC(=O)c1ccc(NS(=O)(=O)c2ccc(Sc3cccc4cccnc34)c3nonc23)cc1` [compound 174, methyl 4-({[7-(quinolin-8-ylthio)-2,1,3-benzoxadiazol-4-yl]sulfonyl}amino)benzoate], the pIC50 in the test with H1299 cells (setting [1]) was 4.70 to 6.00; in the test with H1299 cells (setting [2]) it was 4.70 to 6.00; with A549 cells (3pt, read-out: A549 3pt), 4.70 to 6.00; in the test on A549 cells (6pt, read-out: A549 6pt), 4.70 to 6.00; against TRAF6/Uev1A/Ubc13 it was not above 4.70.

For `CC1CN(c2ccc([N+](=O)[O-])c3nonc23)CC(C)O1` (stereo not drawn) [compound 161, 4-(2,6-dimethylmorpholin-4-yl)-7-nitro-2,1,3-benzoxadiazole], the pIC50 was not above 4.70 with H1299 cells (setting [1]); not above 4.70 in the test with A549 cells (3pt, read-out: A549 3pt); not above 4.70 on TRAF6/Uev1A/Ubc13.

For `CC1CN(S(=O)(=O)c2ccc(Sc3cccc4cccnc34)c3nonc23)CC(C)O1` (stereo not drawn) [compound 213, 8-({7-[(2,6-dimethylmorpholin-4-yl)sulfonyl]-2,1,3-benzoxadiazol-4-yl}thio)quinoline], the pIC50 with H1299 cells (setting [1]) is not above 4.70; with A549 cells (3pt, read-out: A549 3pt), 4.70 to 6.00; on TRAF6/Uev1A/Ubc13, not above 4.70.

These data come from patent US20050282818A1, “Ubiquitin ligase inhibitors” (Rigel Pharmaceuticals, Inc., priority 2004, published 2005).
